Results on one molecule are retold here after patent publication US20200315540A1, “TREATMENT OF A DISEASE OF THE GASTROINTESTINAL TRACT WITH AN IL-1 INHIBITOR” (Progenity, Inc., priority 2016, published 2020).

This data set can be described thus: Tissue, plasma and GI content pharmacokinetics of tacrolimus, oral vs intra-cecal ingestible device delivery in swine. The data set is classed as in vivo. As to conditions: intra-cecally vs orally administered, 12 hours post-dose, FIG. 76. Here is the method: No further randomization procedure was employed.
Animals in Group 1 received an ingestible device containing 0.8 mL of vehicle solution (80% alcohol, 20% HCO-60). Animals in Group 2 received orally […] liquid formulation of tacrolimus at 4 mg/0.8 mL per animal (Prograf: 5 mg/mL). Animals in Group 3 received intra-cecally an ingestible device containing tacrolimus at 1 mg in 0.8 mL per ingestible device. Animals in Group 4 received intra-cecally an ingestible device containing tacrolimus at 2 mg in 0.8 mL per ingestible device. Animals in Group 5 received intra-cecally an ingestible device containing tacrolimus at 4 mg in 0.8 mL per ingestible device. […]
Approximately 200˜400 mg of rectal content were collected, if available, with a fecal swab (Copan Diagnostics Nylon Flocked Dry Swabs, 502CS01). The fecal swab was pre-weighed and weighed after collection in the collection tube (Sterile Tube and Cap No Media, PFPM913S), and the sample weight was recorded. […]
For tissue necropsy, small intestine fluid and cecal fluid were collected separately from all the animals into two separate square plastic bottles, and stored at −20° C. The length and diameter of the cecum and the colon was measured from one animal in each group and recorded for reference. […] All samples were weighed, and the tissue sample weights were recorded. […]

Take `C=CC[C@@H]1/C=C(\C)C[C@H](C)C[C@H](OC)[C@H]2O[C@@](O)(C(=O)C(=O)N3CCCC[C@H]3C(=O)O[C@H](/C(C)=C/[C@@H]3CC[C@@H](O)[C@H](OC)C3)[C@H](C)[C@@H](O)CC1=O)[C@H](C)C[C@@H]2OC` [tacrolimus]: the “mean concentration in the cecum tissue and the proximate colon tissue” value is listed as “higher”.
